Measurements from US20210198277A1, “AMINE-SUBSTITUTED ARYL OR HETEROARYL COMPOUNDS” (Epizyme, Inc., priority 2016, published 2021).
Where two headings read alike, the source gives them in different places.

Experiments:
human EHMT2 913-1193 = target: T1, human EHMT2 913-1193 (Homo sapiens, UniProt Q96KQ7); experiment: EHMT2 enzyme assay on histone peptide substrate (EHMT2 PEP); format: biochemical
T1 construct: recombinant purified human EHMT2 913-1193, Viva; purchased Viva
T1 sequence (Q96KQ7 913-1193): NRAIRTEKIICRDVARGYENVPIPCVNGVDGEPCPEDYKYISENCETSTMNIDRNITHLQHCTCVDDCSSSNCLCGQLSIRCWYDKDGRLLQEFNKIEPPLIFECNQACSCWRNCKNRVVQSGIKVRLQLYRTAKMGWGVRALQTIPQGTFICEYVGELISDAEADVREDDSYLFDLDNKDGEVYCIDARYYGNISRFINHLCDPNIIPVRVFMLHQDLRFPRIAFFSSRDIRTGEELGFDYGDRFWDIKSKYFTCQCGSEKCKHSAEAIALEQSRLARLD
Procedure, shortened: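 Radiometric methyltransferase read-out: ^3H-methyl transfer from ^3H-SAM onto biotinylated histone peptide, captured on streptavidin Flashplates after 60 min reaction at room temperature. Enzyme 0.031 nM, preincubated 30 min with inhibitor; buffer 20 mM Bicine pH 7.5 with 1 mM TCEP; top compound concentration 50 μM final, 2% DMSO.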

EHMT1 = target: T2, EHMT1 (Homo sapiens, UniProt Q9H9B1); experiment: EHMT1 enzyme assay on peptide substrate (EHMT1 PEP); format: biochemical
T2 sequence (Q9H9B1 1-1298): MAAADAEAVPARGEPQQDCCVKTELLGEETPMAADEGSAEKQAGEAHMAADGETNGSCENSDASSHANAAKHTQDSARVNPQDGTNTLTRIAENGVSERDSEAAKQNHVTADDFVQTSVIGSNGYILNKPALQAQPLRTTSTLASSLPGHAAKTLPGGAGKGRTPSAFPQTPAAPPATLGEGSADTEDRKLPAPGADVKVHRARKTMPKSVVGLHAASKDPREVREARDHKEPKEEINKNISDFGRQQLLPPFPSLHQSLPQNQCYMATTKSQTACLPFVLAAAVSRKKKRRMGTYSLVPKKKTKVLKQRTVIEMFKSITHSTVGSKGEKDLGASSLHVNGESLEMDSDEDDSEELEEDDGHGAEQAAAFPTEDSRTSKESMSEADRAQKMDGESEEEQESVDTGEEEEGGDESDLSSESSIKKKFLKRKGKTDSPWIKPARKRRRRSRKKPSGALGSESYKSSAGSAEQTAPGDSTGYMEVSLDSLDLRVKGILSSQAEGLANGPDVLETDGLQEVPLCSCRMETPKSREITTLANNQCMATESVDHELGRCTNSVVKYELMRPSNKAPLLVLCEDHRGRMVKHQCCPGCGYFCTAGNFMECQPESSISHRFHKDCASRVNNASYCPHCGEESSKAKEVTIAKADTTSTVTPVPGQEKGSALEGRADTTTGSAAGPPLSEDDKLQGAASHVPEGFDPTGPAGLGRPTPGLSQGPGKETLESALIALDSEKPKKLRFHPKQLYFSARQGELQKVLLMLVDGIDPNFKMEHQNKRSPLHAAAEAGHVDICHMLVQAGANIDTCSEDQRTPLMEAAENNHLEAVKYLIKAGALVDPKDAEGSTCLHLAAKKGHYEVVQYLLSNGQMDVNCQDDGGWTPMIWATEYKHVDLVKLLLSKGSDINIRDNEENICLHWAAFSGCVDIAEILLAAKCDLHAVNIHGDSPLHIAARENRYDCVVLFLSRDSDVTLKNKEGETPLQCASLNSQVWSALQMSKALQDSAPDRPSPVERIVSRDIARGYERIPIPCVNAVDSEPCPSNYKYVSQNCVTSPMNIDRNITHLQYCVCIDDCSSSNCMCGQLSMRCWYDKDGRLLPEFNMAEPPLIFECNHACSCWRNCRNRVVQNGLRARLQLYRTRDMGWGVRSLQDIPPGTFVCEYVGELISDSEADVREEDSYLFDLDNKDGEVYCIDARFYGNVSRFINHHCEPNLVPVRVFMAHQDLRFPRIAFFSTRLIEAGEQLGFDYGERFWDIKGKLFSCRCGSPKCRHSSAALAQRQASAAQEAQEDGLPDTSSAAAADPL

[1] = recombinant human EHMT2 913-1193, histone H3 1-15 peptide, balanced conditions, read-out: EHMT2 PEP (IC50 μM)
[2] = Table VII, read-out: EHMT2 PEP IC50
[3] = Table VII, read-out: EHMT1 PEP IC50

Row | IC50 (human EHMT2 913-1193; [1]) [µM] | IC50 (EHMT1; read-out: EHMT1 PEP (IC50 μM)) [µM] | IC50 (human EHMT2 913-1193; [2]) [µM] | IC50 (EHMT1; [3]) [µM] | Structure (SMILES)
1 | 0.1 to 1 | < 0.1 |  |  | COc1cnc(Nc2nc(C)cc3[nH]ccc23)cc1OC[C@H]1CCN(C2CC2)C1 [Compound 494a]
2 | 0.1 to 1 | < 0.1 |  |  | COc1cnc(Nc2nc(C)cc3[nH]ccc23)cc1OC[C@@H]1CCN(C2CC2)C1 [Compound 495]
3 | 1 to 10 | 0.1 to 1 |  |  | CNc1cc(C)nc(Nc2cc(Cl)c(OC)c(OCCCN3CCCC3)c2)n1 [Compound 496]
4 | 0.1 to 1 | 0.1 to 1 |  |  | CCc1ccc(Nc2nc(C)cc(NC)n2)cc1OCCCN1CCCC1 [Compound 497]
5 | 1 to 10 | 0.1 to 1 |  |  | CNc1cc(C)nc(Nc2ccc(OC)c(OCCCN3CCC4(CC4)C3)c2)n1 [Compound 498, N^2-(3-(3-(5-azaspiro[2.4]heptan-5-yl)propoxy)-4-methoxyphenyl)-N^4,6-dimethylpyrimidine-2,4-diamine]
6 | 1 to 10 | 0.1 to 1 |  |  | CNc1cc(C)nc(Nc2ccc(OC)c(OCCCCN(C)C)c2)n1 [Compound 502]
7 | 1 to 10 | 1 to 10 |  |  | CNc1cc(C)nc(Nc2ccc(OC)c(OCCC3CCN(C)C3)c2)n1 (stereo not drawn) [Compound 503]
8 | 0.1 to 1 | 0.1 to 1 |  |  | CNc1cc(C)nc(Nc2ccc(OC)c(OCCCN3CCCC3C)c2)n1 (stereo not drawn) [Compound 504, N^2-(4-methoxy-3-(3-(2-methylpyrrolidin-1-yl)propoxy)phenyl)-N^4,6-dimethylpyrimidine-2,4-diamine]
9 | < 0.1 | < 0.1 |  |  | CNc1cc(C)nc(Nc2ccc(OC)c(OCCCN3CC4CC4C3)c2)n1 (stereo not drawn) [Compound 506]
10 | < 0.1 | < 0.1 |  |  | COc1cnc(Nc2nccc3[nH]ccc23)cc1OCCCN1CC2CC2C1 (stereo not drawn) [Compound 507]
11 | 1 to 10 | 1 to 10 |  |  | CNc1cc(C)nc(Nc2ccc(OC)c(OCCC3CN(C)C3)c2)n1 [Compound 508]
12 | 0.1 to 1 | < 0.1 |  |  | CNc1cc(Nc2cc(OCCCN3CC4CC4C3)c(OC)cn2)nc(C)c1F (stereo not drawn) [Compound 509]
13 | 0.1 to 1 | < 0.1 |  |  | CNc1cc(C)nc(Nc2ccc(OC)c(OCC3CN(C4CC4)C3)c2)n1 [Compound 510]
14 | < 0.1 | < 0.1 |  |  | CNc1cc(C)nc(Nc2cnc(OC)c(OC[C@@H]3CCN(C4CC4)C3)c2)n1 [Compound 512]
15 | 0.1 to 1 | < 0.1 |  |  | CNc1cc(C)nc(Nc2cnc(OC)c(OCCCN3CC4CC4C3)c2)n1 (stereo not drawn) [Compound 514]
16 | 1 to 10 | 1 to 10 |  |  | CCc1ncc(Nc2nc(C)cc(NC)n2)cc1OCCCN1CCCC1 [Compound 515]
17 | 1 to 10 | 1 to 10 |  |  | CNc1cc(C)nc(Nc2cnc(C3CC3)c(OCCCN3CCCC3)c2)n1 [Compound 516]
18 | 0.1 to 1 | 0.1 to 1 |  |  | CNc1cc(C)nc(Nc2ccc(OC)c(OCC3CCCN(C4CC4)C3)c2)n1 (stereo not drawn) [Compound 517a]
19 | 0.1 to 1 | 0.1 to 1 |  |  | CNc1cc(C)nc(Nc2ccc(OC)c(OC[C@H]3CCCN(C4CC4)C3)c2)n1 [Compound 517b]
20 | 1 to 10 | 1 to 10 |  |  | CNc1nc(C2CCCC2)c2cc(OC)c(OCCCN3CCCC3)cc2n1 [Compound 518, 4-cyclopentyl-6-methoxy-N-methyl-7-(3-(pyrrolidin-1-yl)propoxy)quinazolin-2-amine]

Row | IC50 (human EHMT2 913-1193; [1]) [µM] | IC50 (EHMT1; read-out: EHMT1 PEP (IC50 μM)) [µM] | IC50 (human EHMT2 913-1193; [2]) [µM] | IC50 (EHMT1; [3]) [µM] | Structure (SMILES)
21 | 0.1 to 1 | 1 to 10 |  |  | CNc1nc(C2CCN(C(C)=O)CC2)c2cc(OC)c(OCCCN3CCCC3)cc2n1 [Compound 519]
22 | < 0.1 | < 0.1 |  |  | CNc1nc(C2CCNCC2)c2cc(OC)c(OCCCN3CCCC3)cc2n1 [Compound 520]
23 | 1 to 10 | 1 to 10 |  |  | CNc1nc(C2CCOCC2)c2cc(OC)c(OCCCN3CCCC3)cc2n1 [Compound 521]
24 | 1 to 10 | 1 to 10 |  |  | CNc1nc(C2=CCOCC2)c2cc(OC)c(OCCCN3CCCC3)cc2n1 [Compound 522]
25 | 1 to 10 | 1 to 10 |  |  | CNc1nc(C2CCCCC2)c2cc(OC)c(OCCCN3CCCC3)cc2n1 [Compound 523, 4-cyclohexyl-6-methoxy-N-methyl-7-(3-(pyrrolidin-1-yl)propoxy)quinazolin-2-amine]
26 | < 0.1 | < 0.1 |  |  | CNc1cc(C2CCOCC2)c2cc(OC)c(OCCCN3CCCC3)cc2n1 [Compound 524, 6-methoxy-N-methyl-4-(oxan-4-yl)-7-[3-(pyrrolidin-1-yl)propoxy]quinolin-2-amine]
27 | < 0.1 | < 0.1 |  |  | CNc1nc(C2CCN(C(C)C)CC2)c2cc(OC)c(OC[C@@H]3CCN(C4CC4)C3)cc2n1 [Compound 526]
28 | < 0.1 | < 0.1 |  |  | COc1cc2c(C3CCN(C)CC3)nc(N3CCCC3)nc2cc1OCCCN1CCCC1 [Compound 527]
29 | 0.1 to 1 | 0.1 to 1 |  |  | COc1cc2c(C3CCN(C)CC3)nc(N3CCC(F)(F)CC3)nc2cc1OCCCN1CCCC1 [Compound 528]
30 | < 0.1 | < 0.1 |  |  | COc1cc2c(C3CCN(C)CC3)nc(NC3CCCC3)nc2cc1OCCCN1CCCC1 [Compound 529]
31 | < 0.1 | < 0.1 |  |  | CNc1nc(C2CCN(C(C)C)CC2)c2cc(OC)c(OCCCN3CCCC3)cc2n1 [Compound 530]
32 | < 0.1 | < 0.1 |  |  | CNc1nc(C2CCN(C)CC2)c2cc(OC)c(OCCCN3CC4CC4C3)cc2n1 (stereo not drawn) [Compound 532]
33 | < 0.1 | < 0.1 |  |  | CNc1nc(C2CCN(CCO)CC2)c2cc(OC)c(OCCCN3CCCC3)cc2n1 [Compound 533]
34 | 1 to 10 | 1 to 10 |  |  | CNc1nc(C2CC(C)(C)NC(C)(C)C2)c2cc(OC)c(OCCCN3CCCC3)cc2n1 [Compound 534]
35 | < 0.1 | < 0.1 |  |  | CNc1cc(C2CCN(C)CC2)c2cc(OC)c(OCCCN3CCCC3)cc2n1 [Compound 535]
36 | < 0.1 | < 0.1 |  |  | COc1cc2c(C3CCN(C)CC3)cc(C)nc2cc1OCCCN1CCCC1 [Compound 536]
37 | > 10 | > 10 |  |  | CCCCNc1nccc(NC)n1 [Compound 543, N^2-butyl-N^4-methylpyrimidine-2,4-diamine]
38 |  |  | 0.1 to 1 | 0.1 to 1 | CNc1cc(C)nc(Nc2ccc(OC)c(OC[C@@H](O)CN3CCCC3)c2)n1 [Compound 1044]
39 |  |  | < 0.1 | < 0.1 | CNc1cc(C)nc(Nc2ccc(OC)c(OC[C@H](O)CN3CCCC3)c2)n1 [Compound 1045]
